Results from PubChem BioAssay AID2060884 (Molecular Pharmacology Branch, DTP, NCI, 2025).

Test system: NCI-H929 complex spheroids, viability % test/control
Test: Anticancer human tumor NCI-H929 cell line growth inhibition [RAS];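 further: compound exposure lasted seven days before viability was read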;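 on viability, T/C: 100% = DMSO vehicle control viability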
Conditions: for viability, T/C: stronger effect = lower value
In short: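 Agents were tested in combination matrices in half-log decrements from a top concentration at or near clinical Cmax (10 microM if undetermined). Targets were multi-cell spheroids of tumour lines plus HUVEC and MSC stromal cells.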

[1] = curve of first compound, second compound 0.0316 µM
[2] = curve of first compound, second compound 0.1 µM
[3] = curve of first compound, second compound 0.316 µM
[4] = curve of first compound, second compound 1 µM
[5] = curve of first compound, second compound 3.16 µM
[6] = curve of first compound, second compound 10 µM

**Q.** What does the source list for `CC1(C)CCC(Nc2ncc(C(F)(F)F)c(-c3c[nH]c4c(P(C)(C)=O)c(C#N)ccc34)n2)CN1` (stereo not given) + C#Cc1c(F)ccc2cc(O)cc(-c3ncc4c(N5CC6CCC(C5)N6)nc(OCC56CCCN5CC(F)C6)nc4c3F)c12?
**A.** IC50 [1]: 6.01 nM; IC50 [2]: 6.55 nM; IC50 [3]: 6.56 nM; IC50 [4]: 6.55 nM; IC50 [5]: 6.8 nM; IC50 [6]: 6.8 nM; viability, T/C (second compound 0.0316 µM, first compound 0.000949 µM): 129%; viability, T/C (second compound 0.0316 µM, first compound 0.003 µM): 98.5%; viability, T/C (second compound 0.0316 µM, first compound 0.00949 µM): 17.9%; viability, T/C (second compound 0.0316 µM, first compound 0.03 µM): 12.8%; viability, T/C (second compound 0.0316 µM, first compound 0.0949 µM): 8.56%; viability, T/C (second compound 0.0316 µM, first compound 0.3 µM): 5.72%; viability, T/C (second compound 0.1 µM, first compound 0.000949 µM): 124%; viability, T/C (second compound 0.1 µM, first compound 0.003 µM): 116%; viability, T/C (second compound 0.1 µM, first compound 0.00949 µM): 18.6%; viability, T/C (second compound 0.1 µM, first compound 0.03 µM): 13.8%; viability, T/C (second compound 0.1 µM, first compound 0.0949 µM): 8.47%; viability, T/C (second compound 0.1 µM, first compound 0.3 µM): 5.88%; viability, T/C (second compound 0.316 µM, first compound 0.000949 µM): 127%; viability, T/C (second compound 0.316 µM, first compound 0.003 µM): 114%; viability, T/C (second compound 0.316 µM, first compound 0.00949 µM): 19.6%; viability, T/C (second compound 0.316 µM, first compound 0.03 µM): 18%; viability, T/C (second compound 0.316 µM, first compound 0.0949 µM): 8.37%; viability, T/C (second compound 0.316 µM, first compound 0.3 µM): 5.86%; viability, T/C (second compound 1 µM, first compound 0.000949 µM): 121%; viability, T/C (second compound 1 µM, first compound 0.003 µM): 112%; viability, T/C (second compound 1 µM, first compound 0.00949 µM): 19.3%; viability, T/C (second compound 1 µM, first compound 0.03 µM): 48.8%; viability, T/C (second compound 1 µM, first compound 0.0949 µM): 9.11%; viability, T/C (second compound 1 µM, first compound 0.3 µM): 5.75%; viability, T/C (second compound 3.16 µM, first compound 0.000949 µM): 127%; viability, T/C (second compound 3.16 µM, first compound 0.003 µM): 118%; viability, T/C (second compound 3.16 µM, first compound 0.00949 µM): 22.1%; viability, T/C (second compound 3.16 µM, first compound 0.03 µM): 22.5%; viability, T/C (second compound 3.16 µM, first compound 0.0949 µM): 9.71%; viability, T/C (second compound 3.16 µM, first compound 0.3 µM): 6.25%; viability, T/C (second compound 10 µM, first compound 0.000949 µM): 125%; viability, T/C (second compound 10 µM, first compound 0.003 µM): 104%; viability, T/C (second compound 10 µM, first compound 0.00949 µM): 23.3%; viability, T/C (second compound 10 µM, first compound 0.03 µM): 63.5%; viability, T/C (second compound 10 µM, first compound 0.0949 µM): 14.7%; viability, T/C (second compound 10 µM, first compound 0.3 µM): 10.9%

**Q.** How did the IC50 [1] turn out when `CCC(CC)c1cc(NC2CCC(N)C2)n2nccc2n1` (stereo not given) + C#Cc1c(F)ccc2cc(O)cc(-c3ncc4c(N5CC6CCC(C5)N6)nc(OCC56CCCN5CC(F)C6)nc4c3F)c12 was run?
**A.** 1790 nM

**Q.** And the IC50 [2]?
**A.** 1800 nM

**Q.** And the IC50 [3]?
**A.** 1790 nM

**Q.** What about the IC50 [4] of the same compound?
**A.** 1780 nM

**Q.** What about the IC50 [5] of the same compound?
**A.** 1790 nM

**Q.** And the IC50 [6]?
**A.** 1820 nM

**Q.** What about the viability, T/C (second compound 0.0316 µM, first compound 0.0316 µM) of the same compound?
**A.** 95.1%

**Q.** What about the viability, T/C (second compound 0.0316 µM, first compound 0.1 µM) of the same compound?
**A.** 95.2%

**Q.** And the viability, T/C (second compound 0.0316 µM, first compound 0.316 µM)?
**A.** 101%

**Q.** What about the viability, T/C (second compound 0.0316 µM, first compound 1 µM) of the same compound?
**A.** 109%

**Q.** What about the viability, T/C (second compound 0.0316 µM, first compound 3.16 µM) of the same compound?
**A.** 1.07%

**Q.** What about the viability, T/C (second compound 0.0316 µM, first compound 10 µM) of the same compound?
**A.** 0.31%

**Q.** And the viability, T/C (second compound 0.1 µM, first compound 0.0316 µM)?
**A.** 97.2%

**Q.** What about the viability, T/C (second compound 0.1 µM, first compound 0.1 µM) of the same compound?
**A.** 97.7%

**Q.** And the viability, T/C (second compound 0.1 µM, first compound 0.316 µM)?
**A.** 99.7%

**Q.** And the viability, T/C (second compound 0.1 µM, first compound 1 µM)?
**A.** 110%

**Q.** And the viability, T/C (second compound 0.1 µM, first compound 3.16 µM)?
**A.** 1.11%

**Q.** And the viability, T/C (second compound 0.1 µM, first compound 10 µM)?
**A.** 0.27%

**Q.** What about the viability, T/C (second compound 0.316 µM, first compound 0.0316 µM) of the same compound?
**A.** 95.4%

**Q.** And the viability, T/C (second compound 0.316 µM, first compound 0.1 µM)?
**A.** 98.1%

**Q.** And the viability, T/C (second compound 0.316 µM, first compound 0.316 µM)?
**A.** 97.6%

**Q.** What about the viability, T/C (second compound 0.316 µM, first compound 1 µM) of the same compound?
**A.** 113%

**Q.** What about the viability, T/C (second compound 0.316 µM, first compound 3.16 µM) of the same compound?
**A.** 0.58%

**Q.** And the viability, T/C (second compound 0.316 µM, first compound 10 µM)?
**A.** 0.23%

**Q.** And the viability, T/C (second compound 1 µM, first compound 0.0316 µM)?
**A.** 93.8%

**Q.** What about the viability, T/C (second compound 1 µM, first compound 0.1 µM) of the same compound?
**A.** 95.7%

**Q.** What about the viability, T/C (second compound 1 µM, first compound 0.316 µM) of the same compound?
**A.** 99.7%

**Q.** What about the viability, T/C (second compound 1 µM, first compound 1 µM) of the same compound?
**A.** 111%

**Q.** And the viability, T/C (second compound 1 µM, first compound 3.16 µM)?
**A.** 0.22%

**Q.** And the viability, T/C (second compound 1 µM, first compound 10 µM)?
**A.** 0.66%

**Q.** And the viability, T/C (second compound 3.16 µM, first compound 0.0316 µM)?
**A.** 94.1%

**Q.** And the viability, T/C (second compound 3.16 µM, first compound 0.1 µM)?
**A.** 98%

**Q.** What about the viability, T/C (second compound 3.16 µM, first compound 0.316 µM) of the same compound?
**A.** 96.4%

**Q.** And the viability, T/C (second compound 3.16 µM, first compound 1 µM)?
**A.** 113%

**Q.** What about the viability, T/C (second compound 3.16 µM, first compound 3.16 µM) of the same compound?
**A.** 1.09%

**Q.** What about the viability, T/C (second compound 3.16 µM, first compound 10 µM) of the same compound?
**A.** 0.81%

**Q.** What about the viability, T/C (second compound 10 µM, first compound 0.0316 µM) of the same compound?
**A.** 102%

**Q.** What about the viability, T/C (second compound 10 µM, first compound 0.1 µM) of the same compound?
**A.** 101%

**Q.** And the viability, T/C (second compound 10 µM, first compound 0.316 µM)?
**A.** 99.1%

**Q.** And the viability, T/C (second compound 10 µM, first compound 1 µM)?
**A.** 111%

**Q.** What about the viability, T/C (second compound 10 µM, first compound 3.16 µM) of the same compound?
**A.** 0.7%

**Q.** What about the viability, T/C (second compound 10 µM, first compound 10 µM) of the same compound?
**A.** 0.12%

**Q.** With `CCC(CC)c1cc(NC2CCC(N)C2)n2nccc2n1` (stereo not given) as the compound, how does the viability, T/C (compound 0.0316 µM) read?
**A.** 101% [middle of 4 runs]

**Q.** And the viability, T/C (compound 0.1 µM)?
**A.** 98% [middle of 4 runs]

**Q.** What about the viability, T/C (compound 0.316 µM) of the same compound?
**A.** 99.4% [middle of 4 runs]

**Q.** And the viability, T/C (compound 3.16 µM)?
**A.** 1.51% [middle of 4 runs]

**Q.** And the viability, T/C (compound 10 µM)?
**A.** 0.97% [middle of 4 runs]

**Q.** And the IC50 (curve of compound)?
**A.** 1.74 µM [middle of 4 runs]
